Values quoted from earlier work in paper PMC8480965 (The Journal of General Physiology, 2021).

Experiments:
Kv2.1 [1] = conditions: independent binding to each voltage sensor; ref Lee et al., 2003
Kv2.1 [2] = conditions: sphingomyelin converted to ceramide-1-phosphate; ref Milescu et al., 2009
Kv2.1 [3] = conditions: ref Tilley et al., 2019

| Substance | inhibition of total gating charge movement per voltage sensor bound (Kv2.1 [1]) | enhancement of GxTX affinity for Kv2.1 by sphingomyelinase D (Kv2.1 [2]) | V1/2 of gating charge–voltage (QV) relation (Kv2.1 [3]; Kv2.1 in saturating GxTX) | z of gating charge–voltage (QV) relation (Kv2.1 [3]; Kv2.1 in saturating GxTX) | stabilization of voltage sensor in resting conformation with GxTX bound (Kv2.1 [3]; estimated previously) | deactivation rate of voltage sensors bound by GxTX (Kv2.1 [3]) | mode of action on Kv2.1 (Kv2.1 [3]) |
| --- | --- | --- | --- | --- | --- | --- | --- |
| Hanatoxin | ~25% | – | – | – | – | – | – |
| guangxitoxin-1E (EGECGGFWWKCGSGKPACCPKYVCSPKWGLCNFPMP; UniProt P84835 1-36, looked up) [GxTX] | – | fourfold | 47 ± 1 mV | 1.6 ± 0.1 e0 | 5,400 fold | faster deactivation rate | partial inverse agonist of Kv2.1 |
